In patent publication US20230009608A1, “GRK2 INHIBITORS AND USES THEREOF” (Cygnal Therapeutics, Inc., priority 2020, published 2023) one finds IC50 data, which are given here for 58 compounds.

SMILES strings stand for the structures. Bounds are passed on as bounds.

The target in the first experiment is T1, GRK2 (Homo sapiens, UniProt P25098).
T1 construct: purchased SignalChem A14-10G
T1 sequence (P25098 1-689): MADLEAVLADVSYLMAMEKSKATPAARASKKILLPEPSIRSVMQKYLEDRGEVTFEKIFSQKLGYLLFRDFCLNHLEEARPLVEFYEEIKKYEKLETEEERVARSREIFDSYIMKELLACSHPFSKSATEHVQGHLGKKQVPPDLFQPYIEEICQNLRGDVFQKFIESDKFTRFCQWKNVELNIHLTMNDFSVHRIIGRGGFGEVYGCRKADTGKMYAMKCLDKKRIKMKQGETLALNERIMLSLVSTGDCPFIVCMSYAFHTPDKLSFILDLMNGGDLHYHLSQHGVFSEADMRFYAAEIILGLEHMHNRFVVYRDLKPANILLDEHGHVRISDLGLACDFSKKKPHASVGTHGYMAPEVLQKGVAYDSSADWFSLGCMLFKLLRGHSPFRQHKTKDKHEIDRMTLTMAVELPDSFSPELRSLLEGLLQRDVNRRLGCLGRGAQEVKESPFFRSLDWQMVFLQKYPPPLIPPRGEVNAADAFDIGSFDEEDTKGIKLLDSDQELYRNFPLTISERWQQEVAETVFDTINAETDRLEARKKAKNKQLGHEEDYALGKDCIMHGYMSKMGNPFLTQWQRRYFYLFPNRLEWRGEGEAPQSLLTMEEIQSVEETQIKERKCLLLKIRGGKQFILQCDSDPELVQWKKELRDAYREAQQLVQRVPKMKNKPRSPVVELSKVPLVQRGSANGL
Kind of experiment: ADPGlo GRK2 Inhibition Assay (Example 8). The class given is biochemical. Particulars: 7.5 nM GRK2, 10 μM ATP, ADP-Glo; read-out: GRK2 IC50 (nM) (Example 8). How it is done:
HTS was performed using 1 μM compound.
Compounds were dissolved in 100% DMSO, serially diluted tree-fold from 100 μM concentration to 46 nM and transferred (50 nL) into assay ready plate.
Materials: GRK2 was purchased from SignalChem (Cat #A14-10G, Lot #X^645-3). Substrate GRKtide was from SignalChem (Cat #G46-58, Lot #R339-6). ADP-Glo Kinase Assay from Promega (Cat #V9102). Assay buffer consisted of 25 mMv HEPES (pH7.5), 10 mMv MgCl2, 0.01% Tween-20, 1 mM DDT. 384-well white plates were from Greiner […] (Item #784075).
HTS protocol: Take 384 well plate with 50 nL of compound in columns 3-22/DMSO solution 1-2,23-24. Add 2.5 μL assay buffer to columns 23 and 24 using Thermo Scientific Multidrop Combi Dispenser. Add 2.5 μL of 2× enzyme solution (15 nM in 1× assay buffer) using Thermo Scientific Multidrop Combi Reagent Dispenser to all columns except of 23 and 24. Incubate for 15 minutes. Fill plate with 2.5 μL of 2× substrate mix (20 μM ATP and 0.6 mg/nt GRKtide in Ix assay buffer) using Thermo Scientific Multidrop Combi Reagent Dispenser. Spin 15 seconds at 1000 rpm and incubate for 180 min at room temperature. Add 5 μL ADP-Glo reagent to all the wells. Spin 15 seconds at 1000 rpm and incubate for 40 min at room temperature. Add 10 μL Detection solution to all the wells. Incubate for 30 min at room temperature. Read plate in Luminescent modeon BMG PheraStar FSX (gain=3600).
Data Analysis: Data were analyzed in GraphPad Prism 8.0.2. Each HTS plate contains compounds in columns 3-22, controls (enzyme, no compound) in columns 1 and 2, and blanks (no enzyme) in columns 23 and 24. HTS percent inhibition was calculated for each compound from the signal in luminescence units and the mean of the plate controls and the mean of the plate blanks using the following equation: % Inhibition=100*(1−((signal-blank mean)/(control mean-blank mean))). At the final stage of data processing, we obtain dose-response curves, tables and SDF-files with the results of screening for each substance.
In general terms: ADP-Glo first removes unused ATP, then detects ADP through luciferase.
On to `Cc1cccnc1CNC(=O)c1cccc(NCc2nnc(-c3ccncn3)n2C)c1` [compound 11], for which the half-maximal inhibitory concentration (IC50) (in general, the concentration that gives 50% inhibition) came to 14 nM. The same measure, in the same setting: the value for `Cn1c(CNc2cccc(C(=O)NCc3ccncc3Cl)c2)nnc1-c1ccncn1` [compound 13] was 9.1 nM.

Turning to `CN1CCC(NC(=O)c2cccc(NCc3nnc(-c4ccncn4)n3C)c2)c2ccccc21` (stereo not shown) [compound 16], the IC50 is 37 nM. Still for that read-out and setting: the value for `Cn1c(CNc2cccc(C(=O)NCc3ccnc(OCC(F)(F)F)c3)c2)nnc1-c1ccncn1` [compound 19] was 17 nM; that for `CCC[C@H](NC(=O)c1cccc(NCc2nnc(-c3ccncn3)n2C)c1)c1ccccn1` [compound 21] was 67 nM.

For `C[C@H](NC(=O)c1cccc(NCc2nnc(-c3ccncn3)n2C)c1)c1cccnc1` [compound 22], the IC50 was 420 nM. `Cn1c(CNc2cccc(C(=O)NCc3cccc4cccnc34)c2)nnc1-c1ccncn1` [compound 24]: the half-maximal inhibitory concentration (IC50) turned out to be 61 nM. For `COc1cccc([C@@H](C)NC(=O)c2cccc(NCc3nnc(-c4ccncn4)n3C)c2)c1` [compound 27], the concentration for half-maximal inhibition (IC50) was 12 nM. Same read-out and setting: the same measure for `COc1cccc2c1CC[C@H]2NC(=O)c1cccc(NCc2nnc(-c3ccncn3)n2C)c1` [compound 30]: 15 nM; for `Cn1c(CNc2cccc(C(=O)N[C@@H]3COCc4ccccc43)c2)nnc1-c1ccncn1` [compound 31]: 22 nM; for `CC1Cc2cc(CNC(=O)c3cccc(NCc4nnc(-c5ccncn5)n4C)c3)ccc2O1` (stereo not shown) [compound 32]: 22 nM. Still for that read-out and setting: the value for `Cn1ccnc1[C@@H](NC(=O)c1cccc(NCc2nnc(-c3ccncc3)[nH]2)c1)C1CC1` [compound 34] was 10 nM; that for `Cc1cc2c(cc1CNC(=O)c1cccc(NCc3nnc(-c4ccncn4)n3C)c1)OCCO2` [compound 36] was 0.5 nM. Same read-out and setting: the same measure for `Cc1cccc2ncc(CNC(=O)c3cccc(NCc4nnc(-c5ccncn5)n4C)c3)n12` [compound 37]: 0.79 nM. On to `Cc1cccc(C(CO)NC(=O)c2cccc(NCc3nnc(-c4ccncn4)n3C)c2)c1` (stereo not shown) [compound 39], for which the IC50 was determined as 1.1 nM.

On to `Cn1c(CNc2cccc(C(=O)NCc3ccc4nccn4c3)c2)nnc1-c1ccncn1` [compound 40], for which the concentration for half-maximal inhibition (IC50) came out at 1.7 nM.

Take `CCOc1ccc(C(CO)NC(=O)c2cccc(NCc3nnc(-c4ccncn4)n3C)c2)cn1` (stereo not shown) [compound 41]: the IC50 worked out at 1.8 nM. Consider `Cn1c(CNc2cccc(C(=O)NCc3ccc(-n4nccn4)cc3)c2)nnc1-c1ccncn1` [compound 42], for which the IC50 was determined as 2.1 nM.

For `Cn1c(CNc2cccc(C(=O)NCc3cccc(C#N)c3)c2)nnc1-c1ccncn1` [compound 43], the half-inhibitory concentration (IC50) was 2.7 nM.

In the case of `Cc1ccc2ncc(CNC(=O)c3cccc(NCc4nnc(-c5ccncn5)n4C)c3)n2c1` [compound 44], the 50% inhibitory concentration (IC50) came out at 2.8 nM. Still for that read-out and setting: the value for `Cc1ccn2c(CNC(=O)c3cccc(NCc4nnc(-c5ccncn5)n4C)c3)cnc2c1` [compound 45] was 3 nM. With `Cc1ccc(C(CO)NC(=O)c2cccc(NCc3nnc(-c4ccncn4)n3C)c2)cc1` (stereo not shown) [compound 46], the IC50 was determined as 3.3 nM.

The experiment is the same for the next values; noted with them: ADPGlo GRK2 enzyme assay; read-out: A: Enzymatic GRK2: IC50 (nM) (Example 8).
For the compound `Cn1c(CNc2cc(C(=O)N[C@@H]3COCc4ccccc43)ccn2)nnc1-c1ccncn1`, the IC50 was determined as 18.7 nM.

`CNS(=O)(=O)c1cccc(F)c1CNC(=O)c1ccnc(NCc2nnc(-c3ccncn3)n2C)c1`: the IC50 turned out to be 15.1 nM. Still for that read-out and setting: the value for `Cn1c(CNc2cc(C(=O)N[C@@H]3COc4cc(F)ccc43)ccn2)nnc1-c1ccncn1` was 37.5 nM. In the case of `Cc1cccnc1CNC(=O)c1cccc(NCc2nnc(-c3ccncc3F)n2C)c1`, the IC50 amounted to 312 nM. Still for that read-out and setting: the same measure for `Cn1c(CNc2cccc(C(=O)NCc3ccncc3Cl)c2)nnc1-c1ccncc1F`: 31.9 nM; for `Cc1cc2c(cc1CNC(=O)c1cccc(NCc3nnc(-c4ccncc4F)n3C)c1)OCCO2`: 8 nM; for `C#COc1ccc(C(=O)c2ccc(OCCCCC(=O)NCCOCCOCCOc3cccc(CNC(=O)c4cccc(NCc5nnc(-c6ccncn6)n5C)c4)c3)cc2)cc1`: more than 1000 nM.

The experiment is the same for the next values; noted with them: Enzyme Assay A, ADPGlo (Example 8); read-out: A: Enzymatic GRK2: IC50 (nM) (Example 8).
Regarding `Cn1c(CNc2cccc(C(=O)NCc3ccc(F)cc3F)c2)nnc1-c1ccncn1`, the 50% inhibitory concentration (IC50) came to 15 nM.

Take `Cn1c(CNc2cccc(C(=O)NCc3cc(F)ccc3F)c2)nnc1-c1ccncn1`: the 50% inhibitory concentration (IC50) turned out to be 27 nM. On the same count and under the same terms, the value for `Cc1ncsc1CNC(=O)c1cccc(NCc2nnc(-c3ccncn3)n2C)c1` was 16 nM; that for `Cc1cccc([C@H](C)NC(=O)c2cccc(NCc3nnc(-c4ccncn4)n3C)c2)n1` was 95 nM; that for `COc1ccc(F)cc1CNC(=O)c1cccc(NCc2nnc(-c3ccncn3)n2C)c1` was 15 nM. Take `Cn1c(CNc2cccc(C(=O)N[C@@H](CF)c3ccccc3)c2)nnc1-c1ccncn1`: the 50% inhibitory concentration (IC50) is 97 nM. On the same count and under the same terms, the value for `Cn1c(CNc2cccc(C(=O)NC(CO)c3ccccc3F)c2)nnc1-c1ccncn1` (stereo not shown) was 60 nM. For `Cn1c(CNc2cccc(C(=O)NC3CCCOc4ccccc43)c2)nnc1-c1ccncn1` (stereo not shown), the IC50 came to 92 nM.

In the case of `Cc1cc(CNC(=O)c2cccc(NCc3nnc(-c4ccncn4)n3C)c2)c(C)n1-c1ccccc1`, the 50% inhibitory concentration (IC50) was 15 nM. Take `Cn1c(CNc2cccc(C(=O)NCc3nc4ccccc4[nH]3)c2)nnc1-c1ccncn1`: the half-maximal inhibitory concentration (IC50) came to 100 nM. Still for that read-out and setting: the same measure for `Cn1c(CNc2cccc(C(=O)NC(c3ccccc3)C(C)(C)CO)c2)nnc1-c1ccncn1` (stereo not shown): 880 nM. On the same count and under the same terms, the value for `COc1cccc(C2(NC(=O)c3cccc(NCc4nnc(-c5ccncn5)n4C)c3)CC2)c1F` was 23 nM; that for `O=C(NCc1ccccn1)c1cccc(NCc2nnc(-c3ccncc3)[nH]2)c1` was 36 nM; that for `Cn1c(CNc2cccc(C(=O)NCc3ccc(Br)cn3)c2)nnc1-c1ccncn1` was 140 nM.

Consider `Cc1cc(CNC(=O)c2cccc(NCc3nnc(-c4ccncn4)n3C)c2)no1`, for which the concentration for half-maximal inhibition (IC50) was 110 nM.

In the case of `Cc1cnc(CNC(=O)c2cccc(NCc3nnc(-c4ccncn4)n3C)c2)cn1`, the half-inhibitory concentration (IC50) stood at 150 nM.

As for `Cn1c(CNc2cccc(C(=O)NCc3c[nH]cn3)c2)nnc1-c1ccncn1`, the IC50 is 110 nM.

Consider `Cc1cnc(CNC(=O)c2cccc(NCc3nnc(-c4ccncn4)n3C)c2)nc1`, for which the IC50 is 580 nM. On the same count and under the same terms, the same measure for `CCS(=O)(=O)c1ccc(CNC(=O)c2cccc(NCc3nnc(-c4ccncn4)n3C)c2)nc1`: 100 nM. Take `Cn1c(CNc2cccc(C(=O)NCc3ccc(S(C)(=O)=O)cn3)c2)nnc1-c1ccncn1`: the half-maximal inhibitory concentration (IC50) was 240 nM. Regarding `CC(NC(=O)c1cccc(NCc2nnc(-c3ccncn3)n2C)c1)c1nnc2ccccn12` (stereo not shown), the half-maximal inhibitory concentration (IC50) came out at 260 nM. On to `CN(C)C[C@@H](NC(=O)c1cccc(NCc2nnc(-c3ccncn3)n2C)c1)c1ccccc1`, for which the half-inhibitory concentration (IC50) worked out at 210 nM. The same measure, in the same setting: the same measure for `Cn1c(CNc2cccc(C(=O)NCc3ncc(Cl)cn3)c2)nnc1-c1ccncn1`: 240 nM; for `Cn1c(CNc2cccc(C(=O)NC(CCO)c3ccc(F)cc3)c2)nnc1-c1ccncn1` (stereo not shown): 52 nM; for `COc1ccc2c(c1)[C@@H](NC(=O)c1cccc(NCc3nnc(-c4ccncn4)n3C)c1)CCO2`: more than 1000 nM.

With `Cn1c(CNc2cccc(C(=O)N[C@@H]3COCc4ccccc43)c2)nnc1-c1ccncc1`, the IC50 turned out to be 201 nM. The same measure, in the same setting: the same measure for `Cn1c(CNc2cccc(C(=O)N[C@H]3COCc4ccccc43)c2)nnc1-c1ccncc1`: 100 nM.

For the compound `Cn1c(CNc2cccc(C(=O)N[C@@H]3COc4cc(F)ccc43)c2)nnc1-c1ccncc1`, the concentration for half-maximal inhibition (IC50) was 143 nM. Still for that read-out and setting: the same measure for `COc1cccc([C@H](C)NC(=O)c2cccc(NCc3nnc(-c4ccncc4)n3C)c2)c1`: 117 nM.
